Experimental data as given in ChEMBL document CHEMBL5579865, “Discovery of Broad-Spectrum Herpes Antiviral Oxazolidinone Amide Derivatives and Their Structure-Activity Relationships” (ACS Med Chem Lett, 2024).
Values after ≈ are worked out from the molar mass of the structure shown.

Key:
Human alphaherpesvirus 1 = assay: Antiviral activity against HSV-1 F strain infected in African green monkey Vero cells assessed as reduction in viral replication incubated for 72 hrs by qRT-PCR analysis; format: functional, organism-based
Human alphaherpesvirus 2 = assay: Antiviral activity against HSV-2 G strain infected in African green monkey Vero cells assessed as reduction in viral replication incubated for 72 hrs by qRT-PCR analysis; format: functional, organism-based
[1] = Inhibition of HCMV DNA polymerase extracted from baculovirus infected Sf21 cells using Heterodimeric nucleic acid as substrate preincubated with enzyme for 30 mins followed by substrate and dATP addition measured after 60 mins by biotinylated UTP incorporation based AlphaLISA assay; parameters: species or system Human betaherpesvirus 5
[2] = Inhibition of VZV DNA polymerase extracted from baculovirus infected Sf21 cells using Heterodimeric nucleic acid as substrate preincubated with enzyme for 30 mins followed by substrate and dATP addition measured after 60 mins by biotinylated UTP incorporation based AlphaLISA assay; parameters: species or system Human alphaherpesvirus 3
Human betaherpesvirus 5 [3] = assay: Antiviral activity against HCMV AD169 infected in human MRC5 cells assessed as reduction in viral replication incubated for 72 hrs in presence of 50 % serum by qRT-PCR analysis; format: functional, organism-based
Human alphaherpesvirus 3 [4] = assay: Antiviral activity against VZV Street infected in human MeWo cells assessed as reduction in viral replication incubated for 72 hrs by qRT-PCR analysis; format: functional, organism-based
Human betaherpesvirus 5 [5] = assay: Antiviral activity against HCMV AD169 infected in human MRC5 cells assessed as reduction in viral replication incubated for 72 hrs in presence of 10 % serum by qRT-PCR analysis; format: functional, organism-based; settings: Human betaherpesvirus 5, AD169, MRC5, 72 h
[6] = Solubility in PBS at pH 7; format: physicochemical
Human alphaherpesvirus 3 [7] = assay: Antiviral activity against VZV Street infected in human MRC5 cells assessed as reduction in viral replication incubated for 72 hrs by qRT-PCR analysis; format: functional, organism-based; settings: Human alphaherpesvirus 3, Street, MRC5, 72 h
[8] = Metabolic stability in human liver microsomes assessed as intrinsic clearance; format: ADME, Microsome; settings: read-out: CLH
[9] = Human alphaherpesvirus 1, F strain, Vero, 72 h, read-out: EC50
[10] = Human alphaherpesvirus 2, G strain, Vero, 72 h, read-out: EC50
[11] = Human betaherpesvirus 5, AD169, MRC5, 72 h, read-out: EC50
[12] = Human alphaherpesvirus 3, Street, MeWo, 72 h, read-out: EC50

Compound | EC50 (Human alphaherpesvirus 1; [9]) | EC50 (Human alphaherpesvirus 2; [10]) | IC50 [1] | IC50 [2] | EC50 (Human betaherpesvirus 5 [3]; [11]) | EC50 (Human alphaherpesvirus 3 [4]; [12]) | EC50 (Human betaherpesvirus 5 [5]) | EC50 (Human alphaherpesvirus 1) | EC50 (Human alphaherpesvirus 2) | solubility [6] | EC50 (Human alphaherpesvirus 3 [7]) | EC50 (Human betaherpesvirus 5 [3]) | EC50 (Human alphaherpesvirus 3 [4]) | CLint scaled [8]
COc1cc(NC(=O)Cc2ccc(Cl)c(F)c2)ccc1C[C@H]1COC(=O)N1 | 0.299 µM | 0.647 µM | 0.097 µM | 0.036 µM | 1.94 µM | 0.126 µM | – | – | – | – | – | – | – | –
COc1cc(NC(=O)Cc2ccc(Cl)cc2)ncc1C[C@H]1COC(=O)N1 | – | – | 15.9 µM | 6.29 µM | – | – | 51.2 µM | Not Active | Not Active | < 2 µM | > 80.2 µM | – | – | –
COc1cc(NC(=O)Cc2ccc(Cl)cc2)c(C)cc1C[C@H]1COC(=O)N1 | – | – | 10.8 µM | 13.9 µM | – | – | – | Not Active | Not Active | – | – | Not Active | Not Active | –
O=C(Cc1ccc(Cl)cc1)Nc1ccc(Cn2cncn2)cc1 | – | – | 12.1 µM | 4.5 µM | – | – | – | – | – | – | – | – | – | –
O=C(Cc1ccc(Cl)cc1)Nc1ccc(CC2COC(=O)N2)cn1 (racemic) | 13.3 µM | 11.4 µM | 4.1 µM | 2.11 µM | 61.7 µM | 4.46 µM | – | – | – | – | – | – | – | –
COc1cc(NC(=O)Cc2ccc(OC(F)(F)F)cc2)ccc1C[C@H]1COC(=O)N1 | – | – | 1.29 µM | 1.69 µM | – | – | – | Not Active | Not Active | – | 64.5 µM | Not Active | – | –
O=C(Cc1ccc(Cl)cc1)Nc1ccc(CC(F)(F)F)cc1 | – | – | 133 µM | 77.9 µM | – | – | – | – | – | – | – | – | – | –
COc1cc(NC(=O)Cc2ccc(F)c(Cl)c2)ccc1C[C@H]1COC(=O)N1 | 2.15 µM | 5.25 µM | 0.357 µM | 0.236 µM | 7.07 µM | 0.441 µM | – | – | – | – | – | – | – | –
COc1cc(NC(=O)C2CCc3cc(Cl)ccc32)ccc1C[C@H]1COC(=O)N1 (some centres undefined) | 0.249 µM | 0.384 µM | 0.026 µM | 0.02 µM | 0.56 µM | 0.24 µM | – | – | – | 57 µM (≈ 22.8 µg/mL) | – | – | – | 63 mL/min/kg
CC(C(=O)Nc1ccc(C[C@H]2COC(=O)N2)cc1)c1ccc(Cl)cc1 (some centres undefined) | – | – | 7.19 µM | 7.73 µM | – | – | – | Not Active | Not Active | – | – | Not Active | Not Active | –
O=C(Cc1ccc(Cl)cc1)Nc1cc(Cl)c(C[C@H]2COC(=O)N2)cn1 | 33.7 µM | 64.5 µM | 6.31 µM | 2.87 µM | 99 µM | – | – | – | – | – | – | – | Not Active | –
O=C(Cc1ccc(Cl)cc1)Nc1ccc(Cc2ccccc2)cc1 | – | – | > 133 µM | 67 µM | – | – | – | – | – | – | – | – | – | –
O=C(Cc1ccc(Cl)cc1)Nc1ccc(C[C@@H]2COC(=O)N2)cc1 | 7.3 µM | 8.69 µM | 2.81 µM | 0.79 µM | 55.6 µM | 14.8 µM | – | – | – | – | – | – | – | –
O=C1N[C@@H](Cc2ccc3c(c2)CCN(Cc2ccc(Cl)cc2)C3=O)CO1 | – | – | 27.6 µM | 40.3 µM | – | – | 44.2 µM | Not Active | Not Active | – | – | – | Not Active | –
CC(C)(c1ccccc1)c1ccc(NC(=O)Cc2ccc(Cl)cc2)cc1 | – | – | > 133 µM | > 133 µM | – | – | – | – | – | – | – | – | – | –
C[C@H](c1ccc(NC(=O)Cc2ccc(Cl)cc2)cc1)[C@H]1COC(=O)N1 | – | – | 16.7 µM | 6.5 µM | – | – | – | Not Active | Not Active | – | – | Not Active | Not Active | –
CN(C(=O)Cc1ccc(Cl)cc1Cl)c1ccc(C[C@H]2COC(=O)N2)cc1 | – | – | 14.6 µM | 14.1 µM | – | – | – | Not Active | Not Active | – | – | Not Active | Not Active | –
O=C(Cc1ccc([N+](=O)[O-])cc1)Nc1ccc(C[C@H]2COC(=O)N2)cc1 | 0.177 µM | 0.473 µM | 0.176 µM | 0.079 µM | 0.72 µM | 0.185 µM | – | – | – | – | – | – | – | –
O=C1N[C@@H](Cc2ccc(NS(=O)(=O)Cc3ccc(Cl)cc3)cc2)CO1 | – | – | 104 µM | 12.7 µM | – | – | – | Not Active | Not Active | – | – | Not Active | Not Active | –
O=C(Cc1ccc(Cl)cc1)Nc1cnc(C[C@H]2COC(=O)N2)cn1 | 25.7 µM | 44.8 µM | 6.5 µM | 2.09 µM | 94 µM | – | – | – | – | – | – | – | Not Active | –
O=C(Cc1ccc(Cl)cc1)Nc1ccc(CC2COC(=O)N2)cc1 (racemic) | 0.26 µM | 3.85 µM | 0.34 µM | 0.18 µM | 12.8 µM | 2.13 µM | – | – | – | 7 µM (≈ 2.41 µg/mL) | – | – | – | –
